From patent US11578073B2, “Xanthine analogs as potent anti-West Nile viral agents” (Southern Research Institute, priority 2019, dated 2023)

Tests used:
West Nile virus = assay: anti-West Nile virus activity of xanthine analogs in HEK293 cells; assay type: cell-based; details: HEK293, read-out: EC90 (effective concentration to inhibit 90% of virus)
[1] = cell viability assay (cytotoxicity) in HEK293 cells; assay type: cell-based; details: human, read-out: CC50 (50% cytotoxicity concentration)

Row | Structure (SMILES) | EC90 (West Nile virus) [µM] | CC50 [1] [µM]
1 | Cc1ccc(C)c(CN2CCN(c3nc4c(c(=O)[nH]c(=O)n4C)n3Cc3ccccc3F)CC2)c1 [Compound 1, 8-(4-(2,5-dimethylbenzyl)piperazin-1-yl)-7-(2-fluorobenzyl)-3-methyl-3,7-dihydro-1H-purine-2,6-dione] | 1.2 | 12
2 | Cc1ccc(C)c(CN2CCN(c3nc4c(c(=O)n(C)c(=O)n4C)n3Cc3ccccc3F)CC2)c1 [Compound 2, 8-(4-(2,5-dimethylbenzyl)piperazin-1-yl)-7-(2-fluorobenzyl)-1,3-dimethyl-3,7-dihydro-1H-purine-2,6-dione] | 1.1 | > 40
3 | Cc1ccc(C)c(CN2CCN(c3nc4c([nH]3)c(=O)n(Cc3ccccc3F)c(=O)n4C)CC2)c1 [Compound 3, 8-(4-(2,5-dimethylbenzyl)piperazin-1-yl)-1-(2-fluorobenzyl)-3-methyl-3,7-dihydro-1H-purine-2,6-dione] | > 10 | > 40
4 | Cn1c(=O)n(O)c(=O)c2c1nc(N1CCN(Cc3ccc(C(C)(C)C)cc3)CC1)n2Cc1ccccc1F [Compound 4, 8-(4-(4-(tert-butyl)benzyl)piperazin-1-yl)-7-(2-fluorobenzyl)-1-hydroxy-3-methyl-3,7-dihydro-1H-purine-2,6-dione] | > 30 | > 40
5 | Cn1c(=O)n(CO)c(=O)c2c1nc(N1CCN(Cc3ccc(C(C)(C)C)cc3)CC1)n2Cc1ccccc1F [Compound 5, 8-(4-(4-(tert-butyl)benzyl)piperazin-1-yl)-7-(2-fluorobenzyl)-1-(hydroxymethyl)-3-methyl-3,7-dihydro-1H-purine-2,6-dione] | 1.2 | 16.8
6 | Cn1c(=O)n(CCO)c(=O)c2c1nc(N1CCN(Cc3ccc(C(C)(C)C)cc3)CC1)n2Cc1ccccc1F [Compound 6, 8-(4-(4-(tert-butyl)benzyl)piperazin-1-yl)-7-(2-fluorobenzyl)-1-(2-hydroxyethyl)-3-methyl-3,7-dihydro-1H-purine-2,6-dione] | 6 | 12
7 | Cc1ccc(C)c(CN2CCN(c3nc4c([nH]3)c(=O)[nH]c(=O)n4C)CC2)c1 [Compound 7, 8-(4-(2,5-Dimethylbenzyl)piperazin-1-yl)-3-methyl-3,7-dihydro-1H-purine-2,6-dione] | > 10 | –
8 | CCn1c(N2CCN(Cc3cc(C)ccc3C)CC2)nc2c1c(=O)[nH]c(=O)n2C [Compound 8, 8-(4-(2,5-Dimethylbenzyl)piperazin-1-yl)-7-ethyl-3-methyl-3,7-dihydro-1H-purine-2,6-dione] | > 10 | > 40
9 | Cc1ccc(C)c(CN2CCN(c3nc4c(c(=O)[nH]c(=O)n4C)n3CC3CCCCC3)CC2)c1 [Compound 9, 7-(Cyclohexylmethyl)-8-(4-(2,5-dimethylbenzyl)piperazin-1-yl)-3-methyl-3,7-dihydro-1H-purine-2,6-dione] | 4.4 | > 40
10 | Cc1ccc(C)c(CN2CCN(c3nc4c(c(=O)[nH]c(=O)n4C)n3Cc3cccnc3)CC2)c1 [Compound 10, 8-(4-(2,5-Dimethylbenzyl)piperazin-1-yl)-3-methyl-7-(pyridin-3-ylmethyl)-3,7-dihydro-1H-purine-2,6-dione] | > 10 | –
11 | Cc1ccc(C)c(CN2CCN(c3nc4c(c(=O)[nH]c(=O)n4C)n3Cc3ccccc3C#N)CC2)c1 [Compound 11, 2-((8-(4-(2,5-Dimethylbenzyl)piperazin-1-yl)-3-methyl-2,6-dioxo-1,2,3,6-tetrahydro-7H-purin-7-yl)methyl)benzonitrile] | 6.9 | > 30
12 | Cn1c(=O)[nH]c(=O)c2c1nc(N1CCNCC1)n2Cc1ccccc1F [Compound 21, 7-(2-Fluorobenzyl)-3-methyl-8-(piperazin-1-yl)-3,7-dihydro-1H-purine-2,6-dione] | > 10 | –
13 | Cn1c(=O)[nH]c(=O)c2c1nc(N1CCN(C3CC3)CC1)n2Cc1ccccc1F [Compound 23, 8-(4-Cyclopropylpiperazin-1-yl)-7-(2-fluorobenzyl)-3-methyl-3,7-dihydro-1H-purine-2,6-dione] | > 10 | –
14 | Cn1c(=O)[nH]c(=O)c2c1nc(N1CCN(C(C)(C)C)CC1)n2Cc1ccccc1F [Compound 24, 8-(4-(tert-Butyl)piperazin-1-yl)-7-(2-fluorobenzyl)-3-methyl-3,7-dihydro-1H-purine-2,6-dione] | > 10 | –
15 | Cn1c(=O)[nH]c(=O)c2c1nc(N1CCN(C3CCC3)CC1)n2Cc1ccccc1F [Compound 25, 8-(4-Cyclobutylpiperazin-1-yl)-7-(2-fluorobenzyl)-3-methyl-3,7-dihydro-1H-purine-2,6-dione] | > 10 | –
16 | Cn1c(=O)[nH]c(=O)c2c1nc(N1CCN(c3ccc(C(C)(C)C)cc3)CC1)n2Cc1ccccc1F [Compound 29, 8-(4-(4-(tert-Butyl)phenyl)piperazin-1-yl)-7-(2-fluorobenzyl)-3-methyl-3,7-dihydro-1H-purine-2,6-dione] | > 10 | –
17 | Cn1c(=O)[nH]c(=O)c2c1nc(N1CCN(c3ccc(Cl)cc3F)CC1)n2Cc1ccccc1F [Compound 31, 8-(4-(4-Chloro-2-fluorophenyl)piperazin-1-yl)-7-(2-fluorobenzyl)-3-methyl-3,7-dihydro-1H-purine-2,6-dione] | > 10 | –

Row | Structure (SMILES) | EC90 (West Nile virus) [µM] | CC50 [1] [µM]
18 | Cn1c(=O)[nH]c(=O)c2c1nc(N1CCN(c3ccc(C#N)cn3)CC1)n2Cc1ccccc1F [Compound 32, 6-(4-(7-(2-Fluorobenzyl)-3-methyl-2,6-dioxo-2,3,6,7-tetrahydro-1H-purin-8-yl)piperazin-1-yl)nicotinonitrile] | > 10 | –
19 | Cn1c(=O)[nH]c(=O)c2c1nc(N1CCN(c3ccccn3)CC1)n2Cc1ccccc1F [Compound 33, 7-(2-Fluorobenzyl)-3-methyl-8-(4-(pyridin-2-yl)piperazin-1-yl)-3,7-dihydro-1H-purine-2,6-dione] | > 10 | –
20 | Cn1c(=O)[nH]c(=O)c2c1nc(N1CCN(C(=O)c3ccc(C(C)(C)C)nc3)CC1)n2Cc1ccccc1F [Compound 45, 8-(4-(6-(tert-Butyl)nicotinoyl)piperazin-1-yl)-7-(2-fluorobenzyl)-3-methyl-3,7-dihydro-1H-purine-2,6-dione] | > 10 | –
21 | Cc1ccc(C)c(CCN2CCN(c3nc4c(c(=O)[nH]c(=O)n4C)n3Cc3ccccc3F)CC2)c1 [Compound 46, 8-(4-(2,5-Dimethylphenethyl)piperazin-1-yl)-7-(2-fluorobenzyl)-3-methyl-3,7-dihydro-1H-purine-2,6-dione] | 10.2 | –
22 | Cn1c(=O)[nH]c(=O)c2c1nc(N1CCN(CCc3ccc(C(C)(C)C)cc3)CC1)n2Cc1ccccc1F [Compound 47, 8-(4-(4-(tert-Butyl)phenethyl)piperazin-1-yl)-7-(2-fluorobenzyl)-3-methyl-3,7-dihydro-1H-purine-2,6-dione] | 13.6 | –
23 | Cc1ccc(C)c(CC(=O)N2CCN(c3nc4c(c(=O)[nH]c(=O)n4C)n3Cc3ccccc3F)CC2)c1 [Compound 48, 8-(4-(2-(2,5-Dimethylphenyl)acetyl)piperazin-1-yl)-7-(2-fluorobenzyl)-3-methyl-3,7-dihydro-1H-purine-2,6-dione] | > 10 | –
24 | Cn1c(=O)[nH]c(=O)c2c1nc(N1CCN(CC(=O)c3ccc(C(C)(C)C)cc3)CC1)n2Cc1ccccc1F [Compound 49, 8-(4-(2-(4-(tert-butyl)phenyl)-2-oxoethyl)piperazin-1-yl)-7-(2-fluorobenzyl)-3-methyl-3,7-dihydro-1H-purine-2,6-dione] | > 10 | –
25 | Cn1c(=O)[nH]c(=O)c2c1nc(N1CCC(F)(F)C1)n2Cc1ccccc1F [Compound 51, 8-(3,3-Difluoropyrrolidin-1-yl)-7-(2-fluorobenzyl)-3-methyl-3,7-dihydro-1H-purine-2,6-dione] | > 10 | –
26 | Cn1c(=O)[nH]c(=O)c2c1nc(N1CCC(F)(F)CC1)n2Cc1ccccc1F [Compound 53, 8-(4,4-Difluoropiperidin-1-yl)-7-(2-fluorobenzyl)-3-methyl-3,7-dihydro-1H-purine-2,6-dione] | > 10 | –
27 | Cn1c(=O)[nH]c(=O)c2c1nc(N1CCC(C(C)(C)C)CC1)n2Cc1ccccc1F [Compound 54, 8-(4-(tert-Butyl)piperidin-1-yl)-7-(2-fluorobenzyl)-3-methyl-3,7-dihydro-1H-purine-2,6-dione] | 1.5 | –
28 | Cn1c(=O)[nH]c(=O)c2c1nc(N1CCC(C(F)(F)F)CC1)n2Cc1ccccc1F [Compound 55, 7-(2-Fluorobenzyl)-3-methyl-8-(4-(trifluoromethyl)piperidin-1-yl)-3,7-dihydro-1H-purine-2,6-dione] | > 10 | –
29 | Cn1c(=O)[nH]c(=O)c2c1nc(N1CCC(c3ccc(C#N)cc3)CC1)n2Cc1ccccc1F [Compound 58, 4-(1-(7-(2-Fluorobenzyl)-3-methyl-2,6-dioxo-2,3,6,7-tetrahydro-1H-purin-8-yl)piperidin-4-yl)benzonitrile] | > 10 | –
30 | Cn1c(=O)[nH]c(=O)c2c1nc(N1CCC(Cc3ccc(C#N)cc3)CC1)n2Cc1ccccc1F [Compound 59, 4-((1-(7-(2-Fluorobenzyl)-3-methyl-2,6-dioxo-2,3,6,7-tetrahydro-1H-purin-8-yl)piperidin-4-yl)methyl)benzonitrile] | > 10 | –
31 | Cn1c(=O)[nH]c(=O)c2c1nc(N1CCC(Cc3ccc(F)cc3)CC1)n2Cc1ccccc1F [Compound 60, 7-(2-Fluorobenzyl)-8-(4-(4-fluorobenzyl)piperidin-1-yl)-3-methyl-3,7-dihydro-1H-purine-2,6-dione] | > 10 | –
32 | Cn1c(=O)[nH]c(=O)c2c1nc(N1CCC(Cc3cc(F)cc(F)c3)CC1)n2Cc1ccccc1F [Compound 61, 8-(4-(3,5-Difluorobenzyl)piperidin-1-yl)-7-(2-fluorobenzyl)-3-methyl-3,7-dihydro-1H-purine-2,6-dione] | > 10 | –
33 | Cn1c(=O)[nH]c(=O)c2c1nc(N1CCC(Cc3cccnc3)CC1)n2Cc1ccccc1F [Compound 62, 7-(2-Fluorobenzyl)-3-methyl-8-(4-(pyridin-3-ylmethyl)piperidin-1-yl)-3,7-dihydro-1H-purine-2,6-dione] | 12.4 | –
34 | Cc1ccc(C)c(CNCCNc2nc3c(c(=O)[nH]c(=O)n3C)n2Cc2ccccc2F)c1 [Compound 63, 8-((2-((2,5-dimethylbenzyl)amino)ethyl)amino)-7-(2-fluorobenzyl)-3-methyl-3,7-dihydro-1H-purine-2,6-dione] | > 10 | –
